Experimental data published in US9452037B2, “Delivery of oral care products” (INTERNATIONAL SCIENTIFIC PTY LTD, priority 2010, dated 2016).

Assay: Tooth whitening of extracted human teeth with carbamide peroxide gel, delivered passively or with displaced dipolar magnetic elements in motion
Settings: for relative (%) change in tooth colour (reduction in yellow content), mean: 700 mg of 36% gel, 10 teeth; for relative (%) change in tooth colour (reduction in yellow content), mean / average shift from the yellow spectrum to the white spectrum, mean / change in colour luminosity, mean: 3 minutes daily for 5 days; for average shift from the yellow spectrum to the white spectrum, mean / change in colour luminosity, mean: 36% gel
Experimental: The ability of the devices of the present invention to deliver active agents (carbamide peroxide) through the dentine of teeth was tested.
20 human teeth were donated by a registered oral surgeon and stored in alcohol for 48 hours prior to ultrasonic cleaning and drying using warm air and absorbent paper. Teeth were divided into two groups. 10 teeth were allocated to the active group (exposed to pairs of displaced dipolar magnetic elements in motion) and 10 allocated to the passive delivery group (exposed to materials with no magnetic field but also in motion). Size, colour and degree of degeneration were matched between the groups.
Individual teeth were photographed using controlled light conditions before and after application of Carbamide Peroxide Gel using a 10 megapixel camera (Pentax Optio) digital camera. Commercial digital imaging software (Photoshop CS2 version 9), was used in CMYK mode to degenerate histograms and images of matched regions of enamel in tooth before and after application.
Each tooth was treated using 700 mg of 36% Carbaminde Peroxide based Tooth Whitening gel. This measure of gel was place on the surface of 10 sized matched pairs of displaced dipolar magnetic elements comprising flexible ETP008 magnetic material formed of a parallel linear array of displaced dipolar magnetic elements with common pole pairs of 450 gauss peak flux with a centre to centre spatial separation of 4 mm oscillated by electrical motor at a frequency of 3 Hz [this is also known as the field-in-motion or FIM group, or eM patch group]. The control group was placed on the surface of polystyrene cards and also oscillated at 3 Hz using the same motorized oscillation means. Teeth were placed horizontally into the carbamide peroxide gel mounds ensuring complete contact and coverage. After 3 minutes of exposure, teeth were removed, cleaned and preserved for the following day. This was repeated for 5 consecutive days.
Analysis was conducted using three measures of colour change. Relative change in percentage of yellow in the image, changes in the spectrum shift from yellow to white and in the luminosity level.
Relative change in the percentage of Yellow in the matched regions of enamel was taken as reflecting the change in the colour of the underlying dentin materials. Differences in the relative change in the Yellow spectrum were interpreted as reflecting the different penetrations rates of peroxide delivery through the enamel under active and passive conditions.
Changes in the spectrum medium point reflects change in colour from the yellow towards the white end of the spectrum. Again, differences in spectrum medium point location were interpreted as reflecting the different penetrations rates of peroxide delivery through the enamel under active and passive conditions.
Luminosity was recorded as a measure of brightness with changes reflecting different penetrations rates of peroxide delivery through the enamel under active and passive conditions.

[1] = Magnetic FIM (eM-patch): ETP008 array oscillated at 3 Hz
[2] = Passive: no magnetic field, oscillated at 3 Hz

Compound: NC(N)=O.OO [carbamide peroxide]
- relative (%) change in tooth colour (reduction in yellow content), mean [1]: 43.98%
- average shift from the yellow spectrum to the white spectrum, mean [1]: 36.20
- change in colour luminosity, mean [1]: 29.54
- average shift from the yellow spectrum to the white spectrum, mean [2]: 27.70
- change in colour luminosity, mean [2]: 21.09
- relative (%) change in tooth colour (reduction in yellow content), mean (Passive: polystyrene card oscillated at 3 Hz, no magnetic field): 29.58%
- greater increase in luminosity than the passive group (magnetic elements in motion vs passive, p=0.023): 40%
- greater reduction in yellow content compared to the passive group (magnetic elements in motion vs passive, p=0.025): 49%
- average shift from yellow to white spectrum greater than the passive diffusion group (magnetic elements in motion vs passive, p=0.044): 31%
